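The compound was tested at five concentrations on cells cultured in 96-well plates, with a 48-hour exposure period. GI50 is the concentration that inhibits growth by half. The concentration for full growth arrest is given as TGI.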 Bounds are passed on as bounds.

Some test systems named below: DU-145 prostate; UO-31 renal; HCT-15 colon; RXF 393 renal; SF-539 CNS; SK-OV-3 ovarian; HCC-2998 colon; HOP-62 NSCLC; SR leukemia; CAKI-1 renal.
What all share (test): growth of human tumour cells (NCI), 48 h

For the compound `Clc1ccc2c(NCCNc3nc(N4CCCCC4)nc4ccccc34)ccnc2c1`, the GI50 in the experiment on DU-145 prostate is 3.24 µM; in the experiment with UO-31 renal, 1.39 µM; in the experiment with HCT-15 colon it was 1.26 µM; in the experiment on RXF 393 renal, 1.81 µM; with SF-539 CNS, 1.72 µM; in the experiment with SK-OV-3 ovarian, 2.58 µM. Moreover, the figures for the GI50 with HCC-2998 colon, in the experiment on HOP-62 NSCLC and in the experiment on SR leukemia were 2.22 µM, 2.62 µM and 1.23 µM, respectively. Also, the TGI in the experiment on DU-145 prostate worked out at 12.9 µM; in the experiment on UO-31 renal, 2.79 µM; in the experiment with HCT-15 colon, 3.93 µM; with RXF 393 renal, 3.72 µM; in the experiment with SF-539 CNS, 3.42 µM; in the experiment with SK-OV-3 ovarian it was 7.64 µM. The TGI was found to be 6.26 µM with HCC-2998 colon, 8.84 µM with HOP-62 NSCLC and 4.53 µM with SR leukemia.
On to `CCOc1cc(CCNC)c2c(ccc3ccc(OC)c(O)c32)c1OC`, for which the TGI in the experiment with DU-145 prostate was 28.5 µM; in the experiment with CAKI-1 renal, 34 µM; with UO-31 renal, 29.6 µM; in the experiment on HCT-15 colon it was 35.7 µM; with RXF 393 renal it was 31.5 µM; in the experiment with SK-OV-3 ovarian, 27.5 µM. The TGI in the experiment with HCC-2998 colon amounted to 30 µM; with HOP-62 NSCLC, 37 µM; in the experiment with SR leukemia, 20.5 µM.
Regarding `Nc1ccccc1-n1c2c(c3ccccc3c1=O)C(=O)c1ccccc1-2`, the TGI in the experiment with DU-145 prostate is above 100 µM; in the experiment with CAKI-1 renal it was 50.7 µM; in the experiment with UO-31 renal, 33.9 µM; in the experiment on HCT-15 colon it was above 100 µM; with SF-539 CNS it was 26.8 µM; with SK-OV-3 ovarian it was 21.5 µM. The TGI was above 100 µM with HCC-2998 colon and 22.9 µM with HOP-62 NSCLC.
As to `O=CCC(O)C(O)C(O)CO` (stereo unspecified), the GI50 in the experiment on DU-145 prostate, in the experiment on CAKI-1 renal, in the experiment on UO-31 renal, in the experiment with HCT-15 colon, in the experiment on SK-OV-3 ovarian and in the experiment with HCC-2998 colon was above 100 µM in each case. Further, the GI50 in the experiment with HOP-62 NSCLC and with SR leukemia was above 100 µM in each case. Also, the TGI with DU-145 prostate, in the experiment on CAKI-1 renal, in the experiment with UO-31 renal, in the experiment with HCT-15 colon, with SK-OV-3 ovarian and with HCC-2998 colon was above 100 µM each time. Besides, the TGI in the experiment with HOP-62 NSCLC and with SR leukemia was above 100 µM each time.
As to `COc1ccc(-c2cncn2-c2ccc(-c3nc4cc(OC)c(OC)c(OC)c4s3)cc2)cc1N`, the GI50 was 6.38 µM in the experiment on DU-145 prostate; 4.82 µM in the experiment with CAKI-1 renal; 1.99 µM with UO-31 renal; 4.02 µM in the experiment on HCT-15 colon; 5.98 µM in the experiment with RXF 393 renal; above 100 µM in the experiment with SF-539 CNS. Moreover, the GI50 in the experiment with SK-OV-3 ovarian was above 100 µM; in the experiment on SR leukemia, 3.43 µM. In addition, the TGI is above 100 µM in the experiment with DU-145 prostate; above 100 µM in the experiment with CAKI-1 renal; 7.57 µM with UO-31 renal; above 100 µM in the experiment with HCT-15 colon; above 100 µM in the experiment on RXF 393 renal; above 100 µM with SF-539 CNS. Moreover, the TGI in the experiment on SK-OV-3 ovarian and with SR leukemia was above 100 µM in each case.
For the compound `O=C1c2ccccc2-c2c1c1ccc([N+](=O)[O-])cc1c(=O)n2CCN1CCOCC1`, the GI50 in the experiment with DU-145 prostate was 61 µM; in the experiment with CAKI-1 renal it was 41.3 µM; with UO-31 renal it was above 100 µM; in the experiment with HCT-15 colon it was above 100 µM; in the experiment with SK-OV-3 ovarian, above 100 µM; in the experiment on HCC-2998 colon, above 100 µM. The GI50 was 52 µM in the experiment with HOP-62 NSCLC and 15.5 µM in the experiment on SR leukemia. For the same compound, the TGI with DU-145 prostate, with CAKI-1 renal, in the experiment on UO-31 renal, in the experiment with HCT-15 colon, in the experiment on SK-OV-3 ovarian and in the experiment on HCC-2998 colon was above 100 µM each time. The TGI in the experiment with HOP-62 NSCLC and with SR leukemia was above 100 µM in each case.
In the case of `CCCCCC/C=C\CCCCCCCCCc1cccc(OC)c1O`, the TGI in the experiment with DU-145 prostate, in the experiment on CAKI-1 renal, in the experiment on UO-31 renal, in the experiment with HCT-15 colon, in the experiment on RXF 393 renal and with SF-539 CNS was above 100 µM in each case. Also, the TGI in the experiment with SK-OV-3 ovarian and in the experiment on HOP-62 NSCLC was above 100 µM each time.
As for `COc1ccccc1CNC(=O)/C=C/c1ccc(O)c(O)c1`, the GI50 was 82.4 µM in the experiment on DU-145 prostate; 30.3 µM with CAKI-1 renal; 20.5 µM in the experiment with UO-31 renal; 15.6 µM in the experiment with HCT-15 colon; 54.9 µM in the experiment on RXF 393 renal; 22.2 µM in the experiment with SF-539 CNS. Besides, the GI50 in the experiment on SK-OV-3 ovarian is 38.2 µM; in the experiment with HCC-2998 colon, 34.6 µM; in the experiment with HOP-62 NSCLC, 61.9 µM. Moreover, the TGI was above 100 µM with DU-145 prostate; above 100 µM in the experiment with CAKI-1 renal; above 100 µM in the experiment with UO-31 renal; 86.3 µM with HCT-15 colon; above 100 µM in the experiment on RXF 393 renal; 65.9 µM in the experiment with SF-539 CNS. Moreover, the TGI with SK-OV-3 ovarian, in the experiment on HCC-2998 colon and with HOP-62 NSCLC was above 100 µM in each case.
In the case of `C=CC(=O)N1CCC(CNc2ncnc(N)c2-c2ccc(Oc3ccccc3)cc2)CC1`, the GI50 in the experiment with DU-145 prostate was 32.9 µM; with CAKI-1 renal, 22.5 µM; with UO-31 renal, 8.63 µM; in the experiment on HCT-15 colon, 26.6 µM; with RXF 393 renal, 22.4 µM; in the experiment on SF-539 CNS it was 20.6 µM. Also, the GI50 in the experiment on SK-OV-3 ovarian is 18 µM; in the experiment on HCC-2998 colon, 21 µM; with HOP-62 NSCLC, 25.8 µM. The TGI with DU-145 prostate is above 100 µM; with CAKI-1 renal, above 100 µM; with UO-31 renal it was 49.2 µM; in the experiment on HCT-15 colon, above 100 µM; in the experiment with RXF 393 renal it was 85.2 µM; in the experiment on SF-539 CNS it was 71 µM. Besides, the TGI in the experiment on SK-OV-3 ovarian was 70 µM; in the experiment on HCC-2998 colon it was 46.7 µM; in the experiment with HOP-62 NSCLC it was 82.6 µM.
Turning to `O=C(O)c1ccccc1C(=O)Nc1cc2c(cc1Br)-c1ccccc1C2=O`, the TGI with DU-145 prostate, with CAKI-1 renal, with UO-31 renal, with HCT-15 colon, in the experiment with RXF 393 renal and with SF-539 CNS was above 100 µM throughout. For the same compound, the TGI is above 100 µM in the experiment with SK-OV-3 ovarian, 58 µM with HCC-2998 colon and above 100 µM with HOP-62 NSCLC.

These data come from PubChem BioAssay (NCI).
